Source: patent publication US20250368666A1, “INDAZOLE COMPOUNDS” (TYRA BIOSCIENCES, INC., priority 2022, published 2025)

How the values were obtained:
FGFR1 = target: T1, FGFR1 (Homo sapiens, UniProt P11362); assay: Kinase binding assay (kinase-tagged T7 phage, affinity beads, qPCR), Kd; conditions: read-out: FGFR1 (Kd nM)
T1 construct: made in house; host or cells: E. coli (BL21-derived), T7 phage
Method in brief: (§1)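 Phage-tagged kinase capture on small-molecule affinity resin, compound competition, qPCR quantitation; Kd from Levenberg-Marquardt Hill fit.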

FGFR2 = target: T2, FGFR2 (Homo sapiens, UniProt P21802); assay: as above; conditions: read-out: FGFR2 (Kd nM)
T2 construct: made in house; host or cells: E. coli (BL21-derived), T7 phage
T2 sequence (P21802 22-821): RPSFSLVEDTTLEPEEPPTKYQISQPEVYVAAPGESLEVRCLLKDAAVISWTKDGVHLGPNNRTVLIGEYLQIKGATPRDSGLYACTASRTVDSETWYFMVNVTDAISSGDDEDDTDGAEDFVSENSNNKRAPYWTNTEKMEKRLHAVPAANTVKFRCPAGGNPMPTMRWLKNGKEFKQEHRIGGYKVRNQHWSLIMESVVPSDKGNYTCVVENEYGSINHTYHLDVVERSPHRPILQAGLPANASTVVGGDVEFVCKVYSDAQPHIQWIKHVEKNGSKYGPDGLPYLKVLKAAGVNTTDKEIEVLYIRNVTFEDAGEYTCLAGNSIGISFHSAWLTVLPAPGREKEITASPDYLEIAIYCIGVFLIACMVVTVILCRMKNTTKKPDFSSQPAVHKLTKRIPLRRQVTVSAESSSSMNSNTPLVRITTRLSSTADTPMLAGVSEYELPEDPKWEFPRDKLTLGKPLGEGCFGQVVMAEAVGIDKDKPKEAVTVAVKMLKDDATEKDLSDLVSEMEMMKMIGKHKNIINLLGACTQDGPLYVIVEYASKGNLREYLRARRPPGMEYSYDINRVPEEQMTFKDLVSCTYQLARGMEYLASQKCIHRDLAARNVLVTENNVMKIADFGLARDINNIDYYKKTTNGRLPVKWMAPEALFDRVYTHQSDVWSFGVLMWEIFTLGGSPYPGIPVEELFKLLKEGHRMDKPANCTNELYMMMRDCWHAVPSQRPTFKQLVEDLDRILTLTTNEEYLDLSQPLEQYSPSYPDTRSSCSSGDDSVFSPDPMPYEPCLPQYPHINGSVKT
Method in brief: as §1

FGFR3 = target: T3, FGFR3 (Homo sapiens, UniProt P22607); assay: as above; conditions: read-out: FGFR3 (Kd nM)
T3 construct: made in house; host or cells: E. coli (BL21-derived), T7 phage
T3 sequence (P22607 23-806): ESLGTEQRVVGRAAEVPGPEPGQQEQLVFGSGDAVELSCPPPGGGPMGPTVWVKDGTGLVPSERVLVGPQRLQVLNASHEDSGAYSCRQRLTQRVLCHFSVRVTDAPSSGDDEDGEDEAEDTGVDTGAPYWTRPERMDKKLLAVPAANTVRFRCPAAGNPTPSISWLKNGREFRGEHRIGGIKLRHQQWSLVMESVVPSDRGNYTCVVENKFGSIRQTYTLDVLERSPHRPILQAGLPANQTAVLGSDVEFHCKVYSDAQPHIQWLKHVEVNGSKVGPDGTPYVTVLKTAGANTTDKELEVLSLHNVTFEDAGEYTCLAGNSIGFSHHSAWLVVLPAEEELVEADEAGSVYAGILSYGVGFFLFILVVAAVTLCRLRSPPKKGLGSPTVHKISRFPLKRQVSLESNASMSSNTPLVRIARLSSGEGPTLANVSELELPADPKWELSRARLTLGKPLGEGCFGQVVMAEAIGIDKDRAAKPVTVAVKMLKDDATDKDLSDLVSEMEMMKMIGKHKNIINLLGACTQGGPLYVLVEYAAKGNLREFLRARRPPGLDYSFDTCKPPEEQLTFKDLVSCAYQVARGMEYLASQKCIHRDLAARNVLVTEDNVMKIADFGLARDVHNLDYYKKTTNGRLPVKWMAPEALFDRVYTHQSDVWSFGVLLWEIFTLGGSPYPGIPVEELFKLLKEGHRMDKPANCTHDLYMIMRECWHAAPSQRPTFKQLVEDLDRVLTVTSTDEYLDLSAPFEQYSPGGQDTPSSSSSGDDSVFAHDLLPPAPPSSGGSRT
Method in brief: as §1

FGFR3 (V555M) = target: T4, FGFR3 (V555M) (Homo sapiens, UniProt P22607, V555M); assay: as above; conditions: V555M mutant; read-out: FGFR3 (V555M) (Kd nM)
T4 construct: made in house; host or cells: E. coli (BL21-derived), T7 phage
T4 sequence (P22607 23-806 V555M): as the sequence (P22607 23-806) above, with V533M counted along it
Method in brief: as §1

FGFR4 = target: T5, FGFR4 (Homo sapiens, UniProt P22455); assay: as above; conditions: read-out: FGFR4 (Kd nM)
T5 construct: made in house; host or cells: E. coli (BL21-derived), T7 phage
T5 sequence (P22455 22-802): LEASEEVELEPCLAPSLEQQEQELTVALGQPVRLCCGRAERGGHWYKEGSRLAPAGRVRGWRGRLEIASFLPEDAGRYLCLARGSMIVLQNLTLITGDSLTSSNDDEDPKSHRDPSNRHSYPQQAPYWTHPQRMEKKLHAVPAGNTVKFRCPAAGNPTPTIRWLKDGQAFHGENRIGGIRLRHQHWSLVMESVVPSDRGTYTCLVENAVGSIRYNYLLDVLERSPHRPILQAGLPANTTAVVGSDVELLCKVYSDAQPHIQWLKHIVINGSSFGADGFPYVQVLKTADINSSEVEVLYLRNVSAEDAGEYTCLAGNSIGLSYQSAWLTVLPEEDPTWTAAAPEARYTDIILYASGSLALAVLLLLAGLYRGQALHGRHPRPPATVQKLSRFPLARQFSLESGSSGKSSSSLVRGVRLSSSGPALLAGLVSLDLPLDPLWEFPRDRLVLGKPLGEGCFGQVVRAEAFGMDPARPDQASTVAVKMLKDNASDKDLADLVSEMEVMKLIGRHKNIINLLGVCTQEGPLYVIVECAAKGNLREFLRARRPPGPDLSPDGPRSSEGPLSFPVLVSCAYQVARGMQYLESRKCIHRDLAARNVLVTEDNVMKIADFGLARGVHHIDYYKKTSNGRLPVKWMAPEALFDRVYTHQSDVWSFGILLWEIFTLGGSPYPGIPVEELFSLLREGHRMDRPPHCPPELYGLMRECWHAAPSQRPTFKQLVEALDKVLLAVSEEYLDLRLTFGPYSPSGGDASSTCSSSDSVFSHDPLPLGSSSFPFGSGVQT
Method in brief: as §1

[1] = system: KATO-III cell line (FGFR2 amplification); assay: Cancer cell line cell viability assay (Cell Titer-Glo), 72 hr; format: cell-based; conditions: Homo sapiens, KATO III
Method in brief: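 Following overnight attachment, each line receives compound in triplicate across nine 4-fold dilutions starting at 3 μM, with DMSO backfill for equal solvent. Luminescence after Cell Titer-Glo 2.0 addition gives percent viability versus DMSO control, fitted by 4-parameter logistic for IC50.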

[2] = system: KG-1 cell line (FGFR 1-fusion); assay: as above; format: cell-based; conditions: Homo sapiens, KG-1, KG-1 cell line (FGFR1-fusion)
Method in brief: (§2)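 ATP-based luminescence (Cell Titer-Glo 2.0) measured viability after 72 h (KG-1, RT112/84) or 120 h (MDA-MB-453, HuH7) compound exposure. Dosing was nine 4-fold steps starting at 3 μM, in triplicate, on overnight-plated cells. IC50 came from a variable-slope 4-parameter fit of % DMSO control.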

[3] = system: RT112/84 cell line (FGFR3-fusion); assay: as above; format: cell-based; conditions: Homo sapiens, RT112/84, RT112/84 cell line (FGFR3-fusion)
Method in brief: as §2

[4] = system: HuH7 cell line (FGF19 amplification); assay: Cancer cell line cell viability assay (Cell Titer-Glo), 120 hr; format: cell-based; conditions: Homo sapiens, Huh-7
Method in brief: as §2

T1 sequence (P11362 22-822): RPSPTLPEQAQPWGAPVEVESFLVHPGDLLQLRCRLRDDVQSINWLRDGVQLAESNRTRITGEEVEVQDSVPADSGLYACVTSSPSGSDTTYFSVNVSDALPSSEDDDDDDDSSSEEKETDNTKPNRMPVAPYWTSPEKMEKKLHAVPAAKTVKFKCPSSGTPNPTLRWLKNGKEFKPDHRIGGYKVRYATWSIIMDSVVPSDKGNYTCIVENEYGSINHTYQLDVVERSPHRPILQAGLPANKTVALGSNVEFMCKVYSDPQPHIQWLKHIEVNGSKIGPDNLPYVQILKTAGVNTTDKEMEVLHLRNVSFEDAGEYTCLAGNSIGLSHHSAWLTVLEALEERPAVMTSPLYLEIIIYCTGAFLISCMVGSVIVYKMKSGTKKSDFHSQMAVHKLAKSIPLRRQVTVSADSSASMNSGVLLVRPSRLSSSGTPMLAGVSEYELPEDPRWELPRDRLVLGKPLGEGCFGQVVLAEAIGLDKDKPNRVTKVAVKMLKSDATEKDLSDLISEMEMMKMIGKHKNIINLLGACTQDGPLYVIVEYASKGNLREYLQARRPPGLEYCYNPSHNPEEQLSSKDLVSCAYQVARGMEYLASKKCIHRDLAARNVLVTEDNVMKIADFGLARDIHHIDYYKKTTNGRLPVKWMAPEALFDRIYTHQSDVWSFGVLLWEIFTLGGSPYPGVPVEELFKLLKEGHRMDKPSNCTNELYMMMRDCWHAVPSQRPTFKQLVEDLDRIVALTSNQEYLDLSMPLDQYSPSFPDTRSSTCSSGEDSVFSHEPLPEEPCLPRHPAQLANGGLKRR

Row | SMILES | Kd (FGFR1) | Kd (FGFR2) | Kd (FGFR3) | Kd (FGFR3 (V555M)) | Kd (FGFR4) | IC50 [1] | IC50 [2] | IC50 [3] | IC50 [4]
1 | C[C@@H](Oc1ccc2[nH]nc(-c3cnc(N4CC(C)(NCC(C)(C)O)C4)c(C#N)c3)c2c1)c1c(Cl)cncc1Cl [Example 54, (R)-5-(5-(1-(3,5-dichloropyridin-4-yl)ethoxy)-1H-indazol-3-yl)-2-(3-((2-hydroxy-2-methylpropyl)amino)-3-methylazetidin-1-yl)nicotinonitrile] | 1 to 50 nM | 1 to 50 nM | 1 to 50 nM | 1 to 50 nM | 1 to 50 nM | 200 to 1000 nM | 200 to 1000 nM | 50 to 200 nM | 0.1 to 50 nM
2 | C[C@@H](Oc1ccc2[nH]nc(-c3cnc(N4CC(C)(NCCC(F)F)C4)c(C#N)c3)c2c1)c1c(Cl)cncc1Cl [Example 21, (R)-5-(5-(1-(3,5-dichloropyridin-4-yl)ethoxy)-1H-indazol-3-yl)-2-(3-((3,3-difluoropropyl)amino)-3-methylazetidin-1-yl)nicotinonitrile] | 50 to 300 nM | 50 to 300 nM | 1 to 50 nM | 1 to 50 nM | 1 to 50 nM | 200 to 1000 nM | 200 to 1000 nM | 50 to 200 nM | 50 to 200 nM
3 | C[C@@H](Oc1ccc2[nH]nc(-c3cnc(N4CC(C)(NCC(F)F)C4)c(C#N)c3)c2c1)c1c(Cl)cncc1Cl [Example 22, (R)-5-(5-(1-(3,5-dichloropyridin-4-yl)ethoxy)-1H-indazol-3-yl)-2-(3-((2,2-difluoroethyl)amino)-3-methylazetidin-1-yl)nicotinonitrile] | 50 to 300 nM | 50 to 300 nM | 1 to 50 nM | 1 to 50 nM | 1 to 50 nM | 200 to 1000 nM | 200 to 1000 nM | 50 to 200 nM | 0.1 to 50 nM
4 | CC(C)OCCNC1(C)CN(c2ncc(-c3n[nH]c4ccc(O[C@H](C)c5c(Cl)cncc5Cl)cc34)cc2C#N)C1 [Example 98, (R)-5-(5-(1-(3,5-dichloropyridin-4-yl)ethoxy)-1H-indazol-3-yl)-2-(3-((2-isopropoxyethyl)amino)-3-methylazetidin-1-yl)nicotinonitrile] | 50 to 300 nM | 50 to 300 nM | 1 to 50 nM | 1 to 50 nM | 1 to 50 nM | 200 to 1000 nM | 200 to 1000 nM | 50 to 200 nM | 50 to 200 nM
5 | C[C@@H](Oc1cc2c(-c3cnc(N4CC(C)(N5CCCC5)C4)c(C#N)c3)n[nH]c2cc1F)c1c(Cl)cncc1Cl [Example 135, (R)-5-(5-(1-(3,5-dichloropyridin-4-yl)ethoxy)-6-fluoro-1H-indazol-3-yl)-2-(3-methyl-3-(pyrrolidin-1-yl)azetidin-1-yl)nicotinonitrile] | 50 to 300 nM | 1 to 50 nM | 1 to 50 nM | 1 to 50 nM | 1 to 50 nM | 200 to 1000 nM | 200 to 1000 nM | 50 to 200 nM | 50 to 200 nM
6 | COc1cc2[nH]nc(-c3cnc(N4CC(C)(NC(C)C)C4)nc3)c2cc1O[C@H](C)c1c(Cl)cncc1Cl [Example 82, (R)-1-(5-(5-(1-(3,5-dichloropyridin-4-yl)ethoxy)-6-methoxy-1H-indazol-3-yl)pyrimidin-2-yl)-N-isopropyl-3-methylazetidin-3-amine] | 1 to 50 nM | 1 to 50 nM | 1 to 50 nM | 1 to 50 nM | 1 to 50 nM | 0.1 to 50 nM | 0.1 to 50 nM | 0.1 to 50 nM | 0.1 to 50 nM
7 | C[C@@H](Oc1ccc2[nH]nc(-c3cnc(N4CC(C)(CN(C)S(C)(=O)=O)C4)c(C#N)c3)c2c1)c1c(Cl)cncc1Cl [Example 23, (R)-N-((1-(3-cyano-5-(5-(1-(3,5-dichloropyridin-4-yl)ethoxy)-1H-indazol-3-yl)pyridin-2-yl)-3-methylazetidin-3-yl)methyl)-N-methylmethanesulfona-mide] | 1 to 50 nM | 1 to 50 nM | 1 to 50 nM | 1 to 50 nM | 1 to 50 nM | 200 to 1000 nM | 200 to 1000 nM | 50 to 200 nM | 0.1 to 50 nM
8 | C[C@@H](Oc1ccc2[nH]nc(-c3cnc(N4CC(C)(CN5CCCC5)C4)c(C#N)c3)c2c1)c1c(Cl)cncc1Cl [Example 123, (R)-5-(5-(1-(3,5-dichloropyridin-4-yl)ethoxy)-1H-indazol-3-yl)-2-(3-methyl-3-(pyrrolidin-1-ylmethyl)azetidin-1-yl)nicotinonitrile] | 50 to 300 nM | 1 to 50 nM | 1 to 50 nM | 1 to 50 nM | 1 to 50 nM | 200 to 1000 nM | 200 to 1000 nM | 50 to 200 nM | 0.1 to 50 nM
9 | COc1cc2[nH]nc(-c3cnc(N4CC(C)(N(C)C)C4)nc3)c2cc1O[C@H](C)c1c(Cl)cncc1Cl [Example 51, (R)-1-(5-(5-(1-(3,5-dichloropyridin-4-yl)ethoxy)-6-methoxy-1H-indazol-3-yl)pyrimidin-2-yl)-N,N,3-trimethylazetidin-3-amine] | 1 to 50 nM | 1 to 50 nM | 1 to 50 nM | 1 to 50 nM | 1 to 50 nM | 0.1 to 50 nM | 0.1 to 50 nM | 0.1 to 50 nM | 0.1 to 50 nM
10 | C[C@@H](Oc1ccc2[nH]nc(-c3cnc(N4CC(C)(N5CCC5)C4)c(C#N)c3)c2c1)c1c(Cl)cncc1Cl [Example 28, (R)-5-(5-(1-(3,5-dichloropyridin-4-yl)ethoxy)-1H-indazol-3-yl)-2-(3′-methyl-[1,3′-biazetidin]-1′-yl)nicotinonitrile] | 1 to 50 nM | 1 to 50 nM | 1 to 50 nM | 1 to 50 nM | 1 to 50 nM | 50 to 200 nM | 50 to 200 nM | 0.1 to 50 nM | 0.1 to 50 nM

Second part, the compound after the results:

Row | Kd (FGFR1) | Kd (FGFR2) | Kd (FGFR3) | Kd (FGFR3 (V555M)) | Kd (FGFR4) | IC50 [1] | IC50 [2] | IC50 [3] | IC50 [4] | SMILES
11 | 1 to 50 nM | 1 to 50 nM | 1 to 50 nM | 1 to 50 nM | 1 to 50 nM | 0.1 to 50 nM | 0.1 to 50 nM | 0.1 to 50 nM | 0.1 to 50 nM | COc1cc2[nH]nc(-c3cnc(N4CC(C)(NCC5CC5)C4)nc3)c2cc1O[C@H](C)c1c(Cl)cncc1Cl [Example 339, (R)-N-(cyclopropyl-methyl)-1-(5-(5-(1-(3,5-dichloropyridin-4-yl)ethoxy)-6-methoxy-1H-indazol-3-yl)pyrimidin-2-yl)-3-methylazetidin-3-amine]
12 | 1 to 50 nM | 1 to 50 nM | 1 to 50 nM | 1 to 50 nM | 1 to 50 nM | 50 to 200 nM | 200 to 1000 nM | 50 to 200 nM | 0.1 to 50 nM | C[C@@H](Oc1ccc2[nH]nc(-c3cnc(N4CC(C)(NCCO)C4)c(C#N)c3)c2c1)c1c(Cl)cncc1Cl [Example 52, 5-[5-[(1R)-1-(3,5-dichloro-4-pyridyl)ethoxy]-1H-indazol-3-yl]-2-[3-(2-hydroxyethylamino)-3-methyl-azetidin-1-yl]pyridine-3-carbonitrile]
13 | 1 to 50 nM | 1 to 50 nM | 1 to 50 nM | 1 to 50 nM | 1 to 50 nM | 50 to 200 nM | 50 to 200 nM | 0.1 to 50 nM | 0.1 to 50 nM | COc1cc2[nH]nc(-c3cnc(N4CC(C)(N[C@H]5CCOC5)C4)c(C#N)c3)c2cc1O[C@H](C)c1c(Cl)cncc1Cl [Example 24, 5-(5-((R)-1-(3,5-dichloropyridin-4-yl)ethoxy)-6-methoxy-1H-indazol-3-yl)-2-(3-methyl-3-(((S)-tetrahydrofuran-3-yl)amino)azetidin-1-yl)nicotinonitrile]
14 | 1 to 50 nM | 1 to 50 nM | 1 to 50 nM | 1 to 50 nM | 1 to 50 nM | 50 to 200 nM | 50 to 200 nM | 0.1 to 50 nM | 0.1 to 50 nM | COc1cc2[nH]nc(-c3cnc(N4CC(C)(NCC5(O)CC5)C4)c(C#N)c3)c2cc1O[C@H](C)c1c(Cl)cncc1Cl [Example 105]
15 | 1 to 50 nM | 1 to 50 nM | 1 to 50 nM | 1 to 50 nM | 1 to 50 nM | 0.1 to 50 nM | 50 to 200 nM | 0.1 to 50 nM | 0.1 to 50 nM | COc1cc2[nH]nc(-c3cnc(N4CC(C)(N5CC(C)(OC)C5)C4)c(C#N)c3)c2cc1O[C@H](C)c1c(Cl)cncc1Cl [Example 101, (R)-5-(5-(1-(3,5-dichloropyridin-4-yl)ethoxy)-6-methoxy-1H-indazol-3-yl)-2-(3-methoxy-3,3′-dimethyl-[1,3′-biazetidin]-1′-yl)nicotinonitrile]
